Laboratory results taken from ChEMBL document CHEMBL3785039, “The pharmacokinetics of diclofenac sodium following intravenous and oral administration” (Eur J Clin Pharmacol, 1979).

Experiments:
Format in all cases: ADME, organism-based
[1] = Plasma concentration in healthy subject (7 subjects) at 50 mg, po administered as single dose measured after 6 hrs by gas chromatography; conditions: human
[2] = Elimination rate constant in healthy subject (7 subjects) at 50 mg, iv by three compartment open model; conditions: human, in vivo
Homo sapiens [3] = assay: Fast disposition half life in healthy subject (7 subjects) at 50 mg, iv by three compartment open model; conditions: in vivo
Homo sapiens [4] = assay: First order inter-compartment transfer rate constant from deep tissue to central compartment in healthy subject (7 subjects) at 50 mg, iv by three compartment open model; conditions: in vivo
[5] = Plasma concentration in healthy subject (7 subjects) at 50 mg, po administered as single dose measured after 9 hrs by gas chromatography; conditions: human
[6] = AUC (0 to infinity) in healthy subject (7 subjects) at 50 mg, po administered as single dose; parameters: dose 50 mg, route oral, time infinity; conditions: human, in vivo
[7] = Plasma clearance in healthy subject (7 subjects) at 50 mg, iv by three compartment open model; conditions: human
[8] = Plasma concentration in healthy subject (7 subjects) at 50 mg, po administered as single dose measured after 5 hrs by gas chromatography; conditions: human
[9] = Oral bioavailability in healthy subject (7 subjects) at 50 mg administered as single dose; conditions: human, in vivo
[10] = Plasma concentration in healthy subject (7 subjects) at 50 mg, po administered as single dose measured after 1 hr by gas chromatography; conditions: human
[11] = Plasma concentration in healthy subject (7 subjects) at 50 mg, po administered as single dose measured after 2 hrs by gas chromatography; conditions: human
[12] = Terminal half life in healthy subject (7 subjects) at 50 mg, po administered as single dose; conditions: human, in vivo, read-out: beta t1/2 (converted)
[13] = Plasma concentration in healthy subject (7 subjects) at 50 mg, po administered as single dose measured after 3 hrs by gas chromatography; conditions: human
[14] = AUC (0 to infinity) in healthy subject (7 subjects) at 50 mg, iv by three compartment open model; parameters: dose 50 mg, route intravenous, time infinity; conditions: human, in vivo
[15] = Plasma concentration in healthy subject (7 subjects) at 50 mg, po administered as single dose measured after 5.5 hrs by gas chromatography; conditions: human
[16] = Cmax in healthy subject (7 subjects) at 50 mg, po administered as single dose; parameters: dose 50 mg, route oral; conditions: human, in vivo
[17] = Plasma concentration in healthy subject (7 subjects) at 50 mg, po administered as single dose measured after 3.5 hrs by gas chromatography; conditions: human
[18] = Plasma concentration in healthy subject (7 subjects) at 50 mg, po administered as single dose measured after 4 hrs by gas chromatography; conditions: human
[19] = Cmax in healthy subject (7 subjects) at 50 mg, iv measured after 5 mins; parameters: dose 50 mg, route intravenous; conditions: human, in vivo
[20] = Terminal half life in healthy subject (7 subjects) at 50 mg, iv by three compartment open model; conditions: human, in vivo, read-out: beta t1/2 (converted)
[21] = Elimination rate constant in healthy subject (7 subjects) at 50 mg, po administered as single dose; conditions: human, in vivo
Homo sapiens [22] = assay: First order inter-compartment transfer rate constant from central to tissue compartment in healthy subject (7 subjects) at 50 mg, iv by three compartment open model; conditions: in vivo
[23] = Plasma concentration in healthy subject (7 subjects) at 50 mg, po administered as single dose measured after 6.5 hrs by gas chromatography; conditions: human
[24] = Total volume of distribution in healthy subject (7 subjects) at 50 mg, iv by three compartment open model; conditions: human, in vivo
Homo sapiens [25] = assay: Tlag in healthy subject (7 subjects) at 50 mg, po administered as single dose; conditions: in vivo
[26] = Plasma concentration in healthy subject (7 subjects) at 50 mg, po administered as single dose measured after 2.5 hrs by gas chromatography; conditions: human
[27] = Plasma concentration in healthy subject (7 subjects) at 50 mg, po administered as single dose measured after 4.5 hrs by gas chromatography; conditions: human
[28] = Plasma concentration in healthy subject (7 subjects) at 50 mg, po administered as single dose measured after 1.5 hrs by gas chromatography; conditions: human
Homo sapiens [29] = assay: First order inter-compartment transfer rate constant from central to deep tissue compartment in healthy subject (7 subjects) at 50 mg, iv by three compartment open model; conditions: in vivo
[30] = Tmax in healthy subject (7 subjects) at 50 mg, po administered as single dose; conditions: human, in vivo
[31] = Plasma concentration in healthy subject (7 subjects) at 50 mg, po administered as single dose measured after 8 hrs by gas chromatography; conditions: human
[32] = Plasma concentration in healthy subject (7 subjects) at 50 mg, po administered as single dose measured after 7 hrs by gas chromatography; conditions: human
[33] = Slow disposition half life in healthy subject (7 subjects) at 50 mg, iv by three compartment open model; conditions: human, in vivo, read-out: alphat1/2 (converted)
Homo sapiens [34] = assay: First order inter-compartment transfer rate constant from tissue to central compartment in healthy subject (7 subjects) at 50 mg, iv by three compartment open model; conditions: in vivo

- concentration at 6 h [1]: 0.035 µg/mL
- k el [2]: 0.00236 s⁻¹
- t1/2 (Homo sapiens [3]): 3 min
- K (Homo sapiens [4]): 0.8 h⁻¹
- concentration at 9 h [5]: 0.003 µg/mL
- AUC(0-inf) [6]: 1.67 µg·h/mL
- clearance [7]: 263 mL/min
- concentration at 5 h [8]: 0.095 µg/mL
- bioavailability [9]: 54%
- concentration at 1 h [10]: 0.2 µg/mL
- concentration at 2 h [11]: 0.86 µg/mL
- half-life [12]: 1.8 h
- concentration at 3 h [13]: 0.69 µg/mL
- AUC(0-inf) [14]: 3.29 µg·h/mL
- concentration at 5.5 h [15]: 0.054 µg/mL
- Cmax [16]: 2 µg/mL
- concentration at 3.5 h [17]: 0.24 µg/mL
- concentration at 4 h [18]: 0.11 µg/mL
- Cmax [19]: 7.8 µg/mL
- half-life [20]: 1.1 h
- k el [21]: 0.000183 s⁻¹
- K (Homo sapiens [22]): 5.5 h⁻¹
- concentration at 6.5 h [23]: 0.025 µg/mL
- Vd [24]: 0.172 L/kg
- Tlag (Homo sapiens [25]): 1.9 h
- concentration at 2.5 h [26]: 0.71 µg/mL
- concentration at 4.5 h [27]: 0.215 µg/mL
- concentration at 1.5 h [28]: 0.1 µg/mL
- K (Homo sapiens [29]): 2.6 h⁻¹
- Tmax [30]: 2.5 h
- concentration at 8 h [31]: 0.011 µg/mL
- concentration at 7 h [32]: 0.015 µg/mL
- half-life [33]: 0.26 h
- K (Homo sapiens [34]): 5.2 h⁻¹
SMILES: O=C([O-])Cc1ccccc1Nc1c(Cl)cccc1Cl.[Na+] [DICLOFENAC SODIUM]
